Here are results for 26 molecules from US20240228506A1, “RIPK1 INHIBITORS AND METHODS OF USE” (Merck Sharp & Dohme LLC, priority 2021, published 2024).

Molecules are shown by their SMILES.

This experiment addresses T1, GST-RIPK1 (recombinant GST-RIPK1 kinase domain (residues 1-327)) (Homo sapiens, UniProt Q13546).
T1 construct: recombinant GST-RIPK1 kinase domain (residues 1-327) enzyme; made in house; host or cells: baculovirus-transfected Sf21 insect cells
T1 sequence (Q13546 1-327): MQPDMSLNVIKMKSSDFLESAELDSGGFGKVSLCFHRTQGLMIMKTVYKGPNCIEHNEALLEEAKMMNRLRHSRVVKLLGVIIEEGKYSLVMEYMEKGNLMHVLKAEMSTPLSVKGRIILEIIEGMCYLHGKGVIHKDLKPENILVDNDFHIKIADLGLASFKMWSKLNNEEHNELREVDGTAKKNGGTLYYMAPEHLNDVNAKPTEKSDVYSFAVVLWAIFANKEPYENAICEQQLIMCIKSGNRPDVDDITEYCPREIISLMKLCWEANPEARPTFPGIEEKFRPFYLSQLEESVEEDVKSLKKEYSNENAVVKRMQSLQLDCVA
The experiment in a line: RIPK1-ADP-Glo enzymatic assay. It is filed as biochemical. The settings on record: 25 nM GST-RIPK1, 300 μM ATP, 3 μM dephosphorylated-MBP; 30 minutes pre-incubation, 150 minutes reaction; ten-point titration. In short, it runs like this: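 Ten-point 1:3 titrations from 100000 nM, 1% DMSO, were preincubated 30 min with 25 nM GST-RIPK1 (1-327) before starting with 300 μM ATP plus 3 μM dephosphorylated MBP; 150 min reaction. ADP-Glo luminescence measured ATP-to-ADP conversion; EC50 by four-parameter sigmoidal regression.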

For `CC(C)(CF)C(=O)N1C[C@@H]2C[C@H]1c1cncc(C#N)c1O2` [Compound 1-42, (2S,5S)-4-(3-fluoro-2,2-dimethylpropanoyl)-2,3,4,5-tetrahydro-2,5-methanopyrido[3,4-f][1,4]oxazepine-9-carbonitrile], the IC50 was 0.114 µM.

Turning to `O=C(N1C[C@@H]2C[C@H]1c1cncc(C#Cc3ccccn3)c1O2)C12CCC(C(F)(F)F)(CC1)C2` [Compound 2-60, ((2S,5S)-9-(pyridin-2-ylethynyl)-2,3-dihydro-2,5-methanopyrido[3,4-f][1,4]oxazepin-4(5H)-yl)(4-(trifluoromethyl)bicyclo [2.2.1]heptan-1-yl)methanone], the IC50 was determined as 0.073 µM.

As for `N#Cc1cncc2c1O[C@H]1C[C@@H]2N(C(=O)C2(C(F)F)CCCC2)C1` [Compound 1-14, (2S,5S)-4-[1-(difluoromethyl)cyclopentane-1-carbonyl]-2,3,4,5-tetrahydro-2,5-methanopyrido[3,4-f][1,4]oxazepine-9-carbonitrile], the IC50 was 0.051 µM.

In the case of `CC1(C(=O)N2C[C@@H]3C[C@H]2c2cncc(C#N)c2O3)CCCC1` [Compound 1-5, (2S,5S)-4-(1-methylcyclopentane-1-carbonyl)-2,3,4,5-tetrahydro-2,5-methanopyrido[3,4-f][1,4]oxazepine-9-carbonitrile], the IC50 was 0.022 µM.

`O=C(N1C[C@@H]2C[C@H]1c1cncc(C#CCn3ccnc3)c1O2)C12CCC(C(F)(F)F)(CC1)C2` [Compound 2-56, ((2S,5S)-9-(3-(1H-imidazol-1-yl)prop-1-yn-1-yl)-2,3-dihydro-2,5-methanopyrido[3,4-f][1,4]oxazepin-4(5H)-yl)(4-(trifluoromethyl)bicyclo [2.2.1]heptan-1-yl)methanone]: the IC50 was 0.023 µM.

Consider `CC(F)(F)C(C)(C)C(=O)N1C[C@@H]2C[C@H]1c1cncc(C#Cc3ccc(F)cc3)c1O2` [Compound 2-123, 3,3-difluoro-1-((25,5S)-9-((4-fluorophenyl)ethynyl)-2,3-dihydro-2,5-methanopyrido[3,4-f][1,4]oxazepin-4(5H)-yl)-2,2-dimethylbutan-1-one], for which the IC50 amounted to 0.034 µM.

On to `N#Cc1cncc2c1O[C@H]1C[C@@H]2N(C(=O)C23CCCC2C3)C1` (single isomer, unassigned) [Compound 1-32, (2S,5S)-4-[(1R,5R or 1S,5S)-bicyclo[3.1.0]hexane-1-carbonyl]-2,3,4,5-tetrahydro-2,5-methanopyrido[3,4-f][1,4]oxazepine-9-carbonitrile], for which the IC50 was determined as 0.29 µM.

For `N#Cc1cncc2c1O[C@H]1C[C@@H]2N(C(=O)C2(C#N)CCCC2)C1` [Compound 1-111, (2S,5S)-4-(1-cyanocyclopentane-1-carbonyl)-2,3,4,5-tetrahydro-2,5-methanopyrido[3,4-f][1,4]oxazepine-9-carbonitrile], the IC50 is 0.184 µM.

On to `Cc1ccc(C#Cc2cncc3c2O[C@H]2C[C@@H]3N(C(=O)C(C)(C)C(F)F)C2)c(C)n1` [Compound 2-91, 1-((2S,5S)-9-((2,6-dimethylpyridin-3-yl)ethynyl)-2,3-dihydro-2,5-methanopyrido[3,4-f][1,4]oxazepin-4(5H)-yl)-3,3-difluoro-2,2-dimethylpropan-1-one], for which the IC50 came to 0.065 µM.

Take `CC(C)(C(=O)N1C[C@@H]2C[C@H]1c1cncc(C#N)c1O2)C(F)F` [Compound 1-1, (2S,5S)-4-(3,3-difluoro-2,2-dimethylpropanoyl)-2,3,4,5-tetrahydro-2,5-methanopyrido[3,4-f][1,4]oxazepine-9-carbonitrile]: the IC50 is 0.032 µM.

Consider `N#Cc1ccnc(N2CCC(F)(C(=O)N3C[C@@H]4C[C@H]3c3cncc(C#N)c3O4)CC2)n1` [Compound 1-83, (2S,5S)-4-(1-(4-cyanopyrimidin-2-yl)-4-fluoropiperidine-4-carbonyl)-2,3,4,5-tetrahydro-2,5-methanopyrido[3,4-f][1,4]oxazepine-9-carbonitrile], for which the IC50 came to 0.03 µM.

Consider `CC(C)(C(=O)N1C[C@@H]2C[C@H]1c1cncc(C#N)c1O2)C1CC1` [Compound 1-8, (2S,5S)-4-(2-cyclopropyl-2-methylpropanoyl)-2,3,4,5-tetrahydro-2,5-methanopyrido[3,4-f][1,4]oxazepine-9-carbonitrile], for which the IC50 stood at 0.029 µM.

`CC(C)(C(=O)N1C[C@@H]2C[C@H]1c1cncc(C#Cc3cnc4ncnn4c3)c1O2)C(F)F` [Compound 2-79, 1-((2S,5S)-9-([1,2,4]triazolo[1,5-a]pyrimidin-6-ylethynyl)-2,3-dihydro-2,5-methanopyrido[3,4-f][1,4]oxazepin-4(5H)-yl)-3,3-difluoro-2,2-dimethylpropan-1-one]: the IC50 came to 0.072 µM.

`N#Cc1cncc2c1O[C@H]1C[C@@H]2N(C(=O)C2(F)CCN(c3cc(-c4ccccc4)ncn3)CC2)C1` [Compound 1-70, (2S,5S)-4-(4-fluoro-1-(6-phenylpyrimidin-4-yl)piperidine-4-carbonyl)-2,3,4,5-tetrahydro-2,5-methanopyrido[3,4-f][1,4]oxazepine-9-carbonitrile]: the IC50 turned out to be 0.035 µM.

In the case of `N#Cc1cncc2c1O[C@H]1C[C@@H]2N(C(=O)C23CCC(C#N)(C2)C3)C1` [Compound 1-100, (2S,5S)-4-(4-cyanobicyclo[2.1.1]hexane-1-carbonyl)-2,3,4,5-tetrahydro-2,5-methanopyrido[3,4-f][1,4]oxazepine-9-carbonitrile], the IC50 worked out at 0.028 µM.

Consider `CCC(C)(C)C(=O)N1C[C@@H]2C[C@H]1c1cncc(Cl)c1O2` [Compound 2-9, 1-((2S,5S)-9-chloro-2,3-dihydro-2,5-methanopyrido[3,4-f][1,4]oxazepin-4(5H)-yl)-2,2-dimethylbutan-1-one], for which the IC50 was 0.041 µM.

As for `CC1(C(=O)N2C[C@@H]3C[C@H]2c2cncc(C#N)c2O3)Cc2cccc(Cl)c21` (single isomer, unassigned) [Compound 1-37, (2S,5S)-4-(5-chloro-7(R or S)-methylbicyclo[4.2.0]octa-1,3,5-triene-7-carbonyl)-2,3,4,5-tetrahydro-2,5-methanopyrido[3,4-f][1,4]oxazepine-9-carbonitrile], the IC50 was 0.136 µM.

On to `N#Cc1cncc2c1O[C@H]1C[C@@H]2N(C(=O)C2(F)CCN(c3ccnc4c(F)cnn34)CC2)C1` [Compound 1-55, (2S,5S)-4-(4-fluoro-1-(3-fluoropyrazolo[1,5-a]pyrimidin-7-yl)piperidine-4-carbonyl)-2,3,4,5-tetrahydro-2,5-methanopyrido[3,4-f][1,4]oxazepine-9-carbonitrile], for which the IC50 turned out to be 0.018 µM.

Consider `CC[C@H](C)CC#Cc1cncc2c1O[C@H]1C[C@@H]2N(C(=O)C(C)(C)C(F)F)C1` [Compound 2-112, 3,3-difluoro-2,2-dimethyl-1-((2S,5S)-9-((S)-4-methylhex-1-yn-1-yl)-2,3-dihydro-2,5-methanopyrido[3,4-f][1,4]oxazepin-4(5H)-yl)propan-1-one], for which the IC50 is 0.083 µM.

With `Cc1ncc2c(c1F)O[C@H]1C[C@@H]2N(C(=O)C23CCC(F)(CC2)C3)C1` [Compound 2-28, ((2S,5S)-9-fluoro-8-methyl-2,3-dihydro-2,5-methanopyrido[3,4-f][1,4]oxazepin-4(5H)-yl)(4-fluorobicyclo[2.2.1]heptan-1-yl)methanone], the IC50 turned out to be 0.059 µM.

With `CC1(C(=O)N2C[C@@H]3C[C@H]2c2cncc(C#N)c2O3)CCC1` [Compound 1-12, (2S,5S)-4-(1-methylcyclobutane-1-carbonyl)-2,3,4,5-tetrahydro-2,5-methanopyrido[3,4-f][1,4]oxazepine-9-carbonitrile], the IC50 is 0.047 µM.

Take `CC(C)(C(=O)N1C[C@@H]2C[C@H]1c1cncc(C#Cc3cncc(C#N)c3)c1O2)C(F)F` [Compound 2-85, 5-(((2S,5S)-4-(3,3-difluoro-2,2-dimethylpropanoyl)-2,3,4,5-tetrahydro-2,5-methanopyrido[3,4-f][1,4]oxazepin-9-yl)ethynyl)nicotinonitrile]: the half-inhibitory concentration (IC50) was 0.038 µM.

Regarding `O=C(N1C[C@@H]2C[C@H]1c1cncc(C#Cc3cnc4ccoc4c3)c1O2)C12CCC(C(F)(F)F)(CC1)C2` [Compound 2-53, ((2S,5S)-9-(furo[3,2-b]pyridin-6-ylethynyl)-2,3-dihydro-2,5-methanopyrido[3,4-f][1,4]oxazepin-4(5H)-yl)(4-(trifluoromethyl)bicyclo [2.2.1]heptan-1-yl)methanone], the IC50 was 0.017 µM.

Consider `O=C(N1C[C@@H]2C[C@H]1c1cncc(C#CCC3CCOC3)c1O2)C12CCC(F)(CC1)C2` (stereo partly drawn) [Compound 2-118, (4-fluorobicyclo[2.2.1]heptan-1-yl)((2S,5S)-9-(3-(tetrahydrofuran-3-yl)prop-1-yn-1-yl)-2,3-dihydro-2,5-methanopyrido[3,4-f][1,4]oxazepin-4(5H)-yl)methanone], for which the IC50 was 0.064 µM.

For the molecule `CC1(C(=O)N2C[C@@H]3C[C@H]2c2cncc(C#N)c2O3)CCC(F)(F)CC1` [Compound 1-36, (2S,5S)-4-(4,4-difluoro-1-methylcyclohexane-1-carbonyl)-2,3,4,5-tetrahydro-2,5-methanopyrido[3,4-f][1,4]oxazepine-9-carbonitrile], the IC50 came to 0.973 µM.

For the molecule `CC(C)(C(=O)N1C[C@@H]2C[C@H]1c1cncc(C#Cc3cccnc3)c1O2)C(F)F` [Compound 2-48, 3,3-difluoro-2,2-dimethyl-1-((2S,5S)-9-(pyridin-3-ylethynyl)-2,3-dihydro-2,5-methanopyrido[3,4-f][1,4]oxazepin-4(5H)-yl)propan-1-one], the IC50 is 0.036 µM.
